Legend:
[1] = system: helpes simplex virus (1-type, KOS strain); experiment: plaque-reduction evaluation method in Verocells; format: cell-based; conditions: drug added one hour after infection, counted three days later
Procedure: The antiviral activities were evaluated by a plaque-reduction evaluation method. Verocells were inoculated to a plastic Petri dish and then proliferated until they formed a monolayer. To each Petri dish, a predetermined number of plaque-forming units (about 100 to 500) of helpes simplex virus (1-type, KOS strain) were infected. Compound 3 was dissolved in 2% of bovine fetus serum inactivated by heating and adjusted to a predetermined concentration. One hour after the infection, the drug solution was added to the cultivation Petri dish (8 ml/Petri dish). Three days later, the cultivation Petri dish was fixed by formalin and dyed with Crystal Violet, whereupon the number of plaques was counted.

[2] = system: reverse transcriptase derived from bird's myeloblastosis virus; experiment: inhibition of the reverse transcriptase activities; format: biochemical; conditions: 37° C. for 60 minutes, [3H]-TTP incorporation
Procedure: Now, the effects of the antiviral agent of the present invention for inhibition of the reverse transcriptase activities will be shown.
The test solution comprised magnesium chloride (5 mM), DTT (5 mM), sodium chloride (60 mM), [^3 H]-TTP (0.2 mM), poly(λA) (10 μg/ml), Oligo (dT) (0.04 U/ml), reverse transcriptase derived from bird's myeloblastosis virus (3 U/ml) and Tris hydrochloric acid (pH 8.0). Compound 3 was dissolved in cyclodextrin to obtain a solution having a concentration of 5 mg/ml, which was then diluted with water to a predetermined concentration for use.
Then, 50 μl of the test solution and 50 μl of the sample solution were mixed, and the mixture was incubated at 37° C. for 60 minutes. Then, 50 μl of the incubated solution was sampled and soaked into a DEA filter paper. Then, this filter paper was washed with a 5% sodium monohydrogen phosphate solution and then with water and ethanol, followed by drying. The radioactivity contained in the captured fraction was measured by means of a scintillation counter. Then, the inhibition rate (%) of the sample Compound 3 was calculated from the radioactivity of the test sample group and that of the control group.

Structure (SMILES): O=C(NC(=O)c1ccccc1[N+](=O)[O-])Nc1ccc(Oc2ncc(Br)cn2)c(Cl)c1 [Compound 3]
- Number of plaques ([1]; 1 μg/ml): 264.5
- inhibition at 1 µg/mL ([1]; 1 μg/ml): 45.1%
- Number of plaques ([1]; 2.5 μg/ml): 122.0
- inhibition at 2.5 µg/mL ([1]; 2.5 μg/ml): 74.7%
- Number of plaques ([1]; 5 μg/ml): 27.5
- inhibition at 5 µg/mL ([1]; 5 μg/ml): 94.3%
- Inhibition rate (%) ([2]; 1.25 μg/ml): 6%
- Inhibition rate (%) ([2]; 2.5 μg/ml): 11%
- Inhibition rate (%) ([2]; 5 μg/ml): 34%
- Inhibition rate (%) ([2]; 10 μg/ml): 57%
